Source: US4992417A (Mount Sinai School of Medicine, priority 1988, dated 1991)

Legend:
rat adipocytes = assay: Lipogenesis assay (conversion of [3-3H] glucose into lipids); format: cell-based; conditions: isolated rat adipocytes
Experimental: Adipocytes were prepared by incubating epididymal and perirenal fat pads obtained from male rats weighing 200-300 g with 1.0 mg/ml collagenase for 60 min at 37° C., followed by filtration through gauze and then through fine-mesh silk. Cells were washed twice by flotation in a clinical centrifuge before suspension for use. The incubation medium was Krebs-Ringer bicarbonate containing half the recommended calcium, 0.5 mM glucose, and 3% fatty acid free bovine serum albumin, with 95% O2 -5% CO2 as the gas phase. […] Cells were preincubated for 45 min at 37° C. before the addition of [3-^3 H] glucose. Incubation was continued for 60 min and stopped by the addition of 0.2 ml of 5N H2 SO4 and 0.2 ml of corn oil to aid in the extraction of lipids. Samples were extracted with 10 ml of Soluscint-0® for 30 min at room temperature before counting the radioactivity in a scintillation counter. Under these conditions, [3-^3 H] glucose was not extracted into the organic phase containing the scintillation fluors and was essentially uncounted.
Stimulation, expressed as per cent of maximum, was plotted as a function of the agonist concentration. The data points represent the mean of triplicate determinations in representative assays performed four times. […]
Stimulation, expressed as per cent of maximum, was plotted as a function of the agonist concentration. […]

[1] = biological target: T1, insulin receptors in rat liver plasma membranes (Rattus norvegicus, UniProt P15127); assay: Insulin receptor binding assay (competition with 125I-insulin)
T1 construct: Rat liver plasma membranes were prepared as described by Horvat et al; from tissue; host or cells: rat liver plasma membranes
Experimental: Following incubation for 45 min at 24° C., the mixtures were diluted with 2.0 ml of ice cold 0.1M sodium phosphate, pH 7.4, containing 0.1% fraction V bovine serum albumin and immediately filtered through cellulose-acetate filters. The filters were washed twice with the ice cold buffer, dried, and then radioactivity was counted in a scintillation counter using Filtron-X®.
Inhibition of binding, expressed as per cent of maximum, was plotted as a function of competitor concentration. […] The maximum binding in these assays amounted to 8.2% of the input radioactivity.
Inhibition of binding, expressed as per cent of maximum, was plotted as a function of competitor concentration.

[2] = test system: Guinea pig antiserum to porcine insulin; assay: Insulin radioimmunoassay; format: binding; conditions: competition with 125I-insulin for anti-insulin antiserum; ratio of slopes
Experimental: After incubation at room temperature overnight, 0.2 ml of the precipitating antibody (goat anti-guinea pig-γ globulin) was added, and the tubes were further incubated overnight at room temperature. Immune precipitates were collected on cellulose-acetate filters and washed with two successive 1.0 mL portions of ice-cold assay buffer. Filters were dried and radioactivity was counted in a scintillation counter in Filtron-X®.

insulin receptor = insulin receptor (Homo sapiens, UniProt P06213); conditions: cited from earlier work; for potency compared with natural insulin: literature

T1 sequence (P15127 27-759 limits assumed): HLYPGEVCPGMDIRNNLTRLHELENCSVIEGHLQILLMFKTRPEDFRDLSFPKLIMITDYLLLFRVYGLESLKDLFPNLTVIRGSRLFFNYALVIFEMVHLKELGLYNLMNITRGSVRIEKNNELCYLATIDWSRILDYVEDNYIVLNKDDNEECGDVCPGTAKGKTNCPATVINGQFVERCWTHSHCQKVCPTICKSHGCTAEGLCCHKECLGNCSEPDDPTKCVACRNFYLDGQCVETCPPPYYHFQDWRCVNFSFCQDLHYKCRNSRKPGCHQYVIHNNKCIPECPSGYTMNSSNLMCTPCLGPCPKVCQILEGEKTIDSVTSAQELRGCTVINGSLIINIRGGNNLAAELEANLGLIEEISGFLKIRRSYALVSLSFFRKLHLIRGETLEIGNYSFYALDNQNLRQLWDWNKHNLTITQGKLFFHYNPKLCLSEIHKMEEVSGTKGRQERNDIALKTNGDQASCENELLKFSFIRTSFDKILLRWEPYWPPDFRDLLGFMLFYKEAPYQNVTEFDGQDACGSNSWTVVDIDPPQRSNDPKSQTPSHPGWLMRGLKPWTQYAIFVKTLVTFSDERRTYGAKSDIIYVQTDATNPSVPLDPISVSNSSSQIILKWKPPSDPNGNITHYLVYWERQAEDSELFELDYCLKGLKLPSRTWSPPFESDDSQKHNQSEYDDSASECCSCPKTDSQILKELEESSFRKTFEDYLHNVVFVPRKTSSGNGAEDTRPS

## [10-Aspartic acid-B] human insulin
Rat adipocytes
  maximum stimulation of lipogenesis compared with bovine insulin: full agonist
Rat adipocytes; [3-3H] glucose, 60 min, assays performed four times
  relative potency (concentration ratio required to produce 50% of the maximum stimulation of lipogenesis) relative to bovine insulin: 435±144%
[1]; rat liver plasma membranes, 45 min at 24° C., pH 7.4, assay performed four times
  potency relative to bovine insulin (concentration ratio required to inhibit 50% of the specific binding of 125I-insulin): about 534±146%
[1]; relative to natural insulins
  binding to the insulin receptor, times more tightly than natural insulins: about five times more tightly
[2]
  potency in radioimmunoassay relative to bovine insulin: approximately equal potency

## [Asn^B10 ]- insulin
Insulin receptor
  potency compared with natural insulin: reduced potency

## [Leu^B10 ]- insulin
Insulin receptor
  potency compared with natural insulin: reduced potency

## [Lys^B10 ] insulin
Insulin receptor
  potency compared with natural insulin: reduced potency

## des-pentapeptide(B26-B30)-[Phe^B25 -α-carboxamide]insulin
Insulin receptor
  potency compared with natural insulin: comparable potency

## des-pentapeptide(B26-B30)-[Tyr^B25 -α-carboxamide]insulin
Insulin receptor; literature (Nakagawa et al.; Casareto et al.)
  potency greater than insulin: 270-300%
